Assay results as given in PubChem BioAssay AID1259407 (Chemical Carcinogenesis Research Information System (CCRIS), 2018).
Active and inactive are the calls of the source. The rule behind the calls is not given here.

System: CCRIS mutagenicity, Ames/micronucleus/aberration tests
Assay: CCRIS mutagenicity studies
[1] = Test System: AMES SALMONELLA TYPHIMURIUM, Strain/Indicator: TA98, Metabolic Activation: NONE, Method: STANDARD PLATE
[2] = Test System: AMES SALMONELLA TYPHIMURIUM, Strain/Indicator: TA98, Metabolic Activation: RAT, LIVER, S-9, AROCLOR 1254, Method: STANDARD PLATE
[3] = Test System: AMES SALMONELLA TYPHIMURIUM, Strain/Indicator: TA100, Metabolic Activation: RAT, LIVER, S-9, AROCLOR 1254, Method: STANDARD PLATE

Compound: c1ccc2c(c1)-c1cccc3cc4ccccc4c-2c13
- mutagenic call [1]: inactive; negative
- mutagenic call [2]: inactive; negative
- mutagenic call [3]: active; positive

Compound: O=C(O)c1ccccn1
- mutagenic call (Test System: AMES SALMONELLA TYPHIMURIUM, Strain/Indicator: TA98, Metabolic Activation: HAMSTER, LIVER, S-9, AROCLOR 1254, Method: STANDARD PLATE): inactive; negative
- mutagenic call [1]: inactive; negative
- mutagenic call [2]: inactive; negative
- mutagenic call (Test System: AMES SALMONELLA TYPHIMURIUM, Strain/Indicator: TA100, Metabolic Activation: HAMSTER, LIVER, S-9, AROCLOR 1254, Method: STANDARD PLATE): inactive; negative
- mutagenic call (Test System: AMES SALMONELLA TYPHIMURIUM, Strain/Indicator: TA100, Metabolic Activation: NONE, Method: STANDARD PLATE): inactive; negative
- mutagenic call [3]: inactive; negative
- mutagenic call (Test System: AMES SALMONELLA TYPHIMURIUM, Strain/Indicator: TA1535, Metabolic Activation: HAMSTER, LIVER, S-9, AROCLOR 1254, Method: STANDARD PLATE): inactive; negative
- mutagenic call (Test System: AMES SALMONELLA TYPHIMURIUM, Strain/Indicator: TA1535, Metabolic Activation: NONE, Method: STANDARD PLATE): inactive; negative
- mutagenic call (Test System: AMES SALMONELLA TYPHIMURIUM, Strain/Indicator: TA1535, Metabolic Activation: RAT, LIVER, S-9, AROCLOR 1254, Method: STANDARD PLATE): inactive; negative
- mutagenic call (Test System: AMES SALMONELLA TYPHIMURIUM, Strain/Indicator: TA1537, Metabolic Activation: HAMSTER, LIVER, S-9, AROCLOR 1254, Method: STANDARD PLATE): inactive; negative
- mutagenic call (Test System: AMES SALMONELLA TYPHIMURIUM, Strain/Indicator: TA1537, Metabolic Activation: NONE, Method: STANDARD PLATE): inactive; negative
- mutagenic call (Test System: AMES SALMONELLA TYPHIMURIUM, Strain/Indicator: TA1537, Metabolic Activation: RAT, LIVER, S-9, AROCLOR 1254, Method: STANDARD PLATE): inactive; negative
- mutagenic call (Test System: CHINESE HAMSTER OVARY CELLS, Strain/Indicator: CHO CELLS (HPRT)/6-THIOGUANINE, Metabolic Activation: NONE, Method: STANDARD PLATE): inactive; negative
- mutagenic call (Test System: MOUSE LYMPHOMA CELLS, Strain/Indicator: L5178Y TK+/-, Metabolic Activation: NONE, Method: TFT RESISTANCE): inactive; negative
- mutagenic call (Test System: MOUSE LYMPHOMA CELLS, Strain/Indicator: L5178Y TK+/-, Metabolic Activation: RAT, LIVER, S-9, AROCLOR 1254, Method: TFT RESISTANCE): inactive; negative
- mutagenic call (Test System: MOUSE LYMPHOMA, Strain/Indicator: L5178Y (TK+/TK-), Metabolic Activation: NONE, Method: SUSPENSION/PLATE): active; positive. reevaluation of results: equivocal
- mutagenic call (Test System: MOUSE LYMPHOMA, Strain/Indicator: L5178Y (TK+/TK-), Metabolic Activation: RAT, LIVER, S-9, AROCLOR 1254, Method: SUSPENSION/PLATE): active; positive. reevaluation of results: equivocal

Compound: C[N+]1([O-])CCC[C@H]1c1cccnc1 (stereo not given in full)
- mutagenic call (Test System: AMES SALMONELLA TYPHIMURIUM, Strain/Indicator: TA98, Metabolic Activation: NONE, Method: PREINCUBATION): inactive; negative
- mutagenic call (Test System: AMES SALMONELLA TYPHIMURIUM, Strain/Indicator: TA98, Metabolic Activation: RAT, LIVER, S-9, AROCLOR 1254 (5%), Method: PREINCUBATION): inactive; negative
- mutagenic call (Test System: AMES SALMONELLA TYPHIMURIUM, Strain/Indicator: TA100, Metabolic Activation: NONE, Method: PREINCUBATION): inactive; negative
- mutagenic call (Test System: AMES SALMONELLA TYPHIMURIUM, Strain/Indicator: TA100, Metabolic Activation: RAT, LIVER, S-9, AROCLOR 1254 (5%), Method: PREINCUBATION): inactive; negative
- mutagenic call (Test System: AMES SALMONELLA TYPHIMURIUM, Strain/Indicator: TA1535, Metabolic Activation: NONE, Method: PREINCUBATION): inactive; negative
- mutagenic call (Test System: AMES SALMONELLA TYPHIMURIUM, Strain/Indicator: TA1535, Metabolic Activation: RAT, LIVER, S-9, AROCLOR 1254 (5%), Method: PREINCUBATION): inactive; negative
- mutagenic call (Test System: AMES SALMONELLA TYPHIMURIUM, Strain/Indicator: TA1537, Metabolic Activation: NONE, Method: PREINCUBATION): inactive; negative
- mutagenic call (Test System: AMES SALMONELLA TYPHIMURIUM, Strain/Indicator: TA1537, Metabolic Activation: RAT, LIVER, S-9, AROCLOR 1254 (5%), Method: PREINCUBATION): inactive; negative
- mutagenic call (Test System: AMES SALMONELLA TYPHIMURIUM, Strain/Indicator: TA1538, Metabolic Activation: NONE, Method: PREINCUBATION): inactive; negative
- mutagenic call (Test System: AMES SALMONELLA TYPHIMURIUM, Strain/Indicator: TA1538, Metabolic Activation: RAT, LIVER, S-9, AROCLOR 1254 (5%), Method: PREINCUBATION): inactive; negative
